A short description of the first assay: DVS measurement: % reduction in amount of water absorbed by treated hair. Also on record: % reduction in water absorbed: concentration or dose not given beside the values. Particulars: Molecular Class II. How it is done:
The leave-on treatment compositions are prepared by adding the Moisture Control Materials and perfume, if needed, into a 50:50 ethanol/water carrier and stirred until complete dissolution. The solution pH is adjusted using sodium hydroxide (50% w/w) to a final pH of 4.0-4.2.
The hair is allowed to air dry and then analyzed using the DVS method described above. The experiment is repeated for a dosage of 0.50 g of solution per g of hair. The hair in this case is also assessed by expert graders, as described below, in addition to the DVS analysis.
An amount of 25-30 mg of hair with length of approximately 1 cm is weighed and hold for equilibration at 0% RH for 16 hours. After the 16-hour period, the RH is increased to 10% and maintained at this level for 6 hours. Then, the RH is increased by 10% after every 6 hours interval until it reaches 90% RH. The % reduction in amount of water absorbed is calculated as follows:
A=Amount of water absorbed by the hair treated with composition containing the Moisture Control Material
B=Amount of water absorbed by the hair treated with control composition (only carrier) containing no Moisture Control Material % reduction in amount of water absorbed=[(B−A)×100]/B
Regarding `CCCCC/C=C\C/C=C\CCCCCCCC(=O)OCC` [Ethyl linoleate], the “% reduction in water absorbed” value came to 8%. For the compound `CCCCCC[C@@H](O)C/C=C\CCCCCCCC(=O)O` [Ricinoleic acid], the “% reduction in water absorbed” value was found to be 8.8%.

As to `CCCCCCCC/C=C\CCCCCCCC(=O)OCC(O)CO` (stereo not drawn) [Glyceryl monooleate], the “% reduction in water absorbed” value was 5%. On to `C/C(=C\CO)CCC[C@H](C)CCC[C@H](C)CCCC(C)C` [Phytol], for which the “% reduction in water absorbed” value is listed as 14%. The same measure, in the same setting: in the case of `O=C(OCCO)c1ccccc1O` [2-Hydroxyethyl salicylate] it was 10%; in that of `CCCCCCCCCCCCCC(=O)OC(C)C` [Isopropyl myristate], 12%. In the case of `CCCCCCCC/C=C\CCCCCCCC(=O)O` [Oleic Acid], the “% reduction in water absorbed” value came to 14%. Same read-out and setting: the result for `CCOC(=O)c1cc(O)c(O)c(O)c1` [Ethyl gallate] reads 17%; that for Sorbitan caprylate, 11%; that for `CC(C)CCCCCCCCCCCCCCCOC(=O)CCCCCCCCCCCCCCC(C)C` [Isostearyl isostearate], 11%. Turning to `CC(C)C(=O)O` [Isobutyric acid], the “% reduction in water absorbed” value stood at 5%.

Take `CCCCCCCCC(CO)CCCCCC` (stereo not drawn) [2-Hexyl-1-decanol]: the “% reduction in water absorbed” value amounted to 11%.

Staying with this assay, now noted: material at 1% wt/vol.
For the compound `Nc1cccc(C(=O)O)c1` [3-Aminobenzoic acid], the “% Reduction in amount of water absorbed” value turned out to be 12%.

Turning to `O=C(O)c1cccc(O)c1` [3-Hydroxybenzoic Acid], the “% Reduction in amount of water absorbed” value is on record as 20%. Turning to `O=S(=O)(O)c1ccc(O)cc1` [4-Hydroxybenzenesulphonic acid], the “% Reduction in amount of water absorbed” value was found to be 26%. For the compound `Nc1cccc(O)c1` [3-Aminophenol], the “% Reduction in amount of water absorbed” value is reported as 14%. For the compound `O=C(O)c1cc(O)c(O)c(O)c1` [Gallic acid], the “% Reduction in amount of water absorbed” value is reported as 15%.

For `COc1cc(/C=C/C(=O)O)ccc1O` [Trans-Ferulic Acid], the “% Reduction in amount of water absorbed” value is on record as 6%. `O=C(O)c1cc(O)c(C(=O)O)cc1O` [2,5 Dihydroxyterephthalic acid]: the “% Reduction in amount of water absorbed” value is listed as 18%.

As for `O=C(O)c1cc(Cl)c(O)c(Cl)c1` [3,5-Dichloro-4-hydroxybenzoic acid], the “% Reduction in amount of water absorbed” value amounted to 15%. Turning to `O=C(O)c1ccc(O)cc1O` [2,4-Dihydroxybenzoic acid], the “% Reduction in amount of water absorbed” value was 30%. On to `Nc1ccc(O)cc1` [4-Aminophenol], for which the “% Reduction in amount of water absorbed” value worked out at 10%. Consider `O=C(O)c1c(O)cccc1O` [2,6-Dihydroxybenzoic acid], for which the “% Reduction in amount of water absorbed” value was 35%. On to `O=C(O)c1ccc(O)c(O)c1` [3,4-Dihydroxybenzoic acid], for which the “% Reduction in amount of water absorbed” value came to 20%. With `Nc1ccc(C(=O)O)cc1` [4-Aminobenzoic acid], the “% Reduction in amount of water absorbed” value was determined as 12%. With `Cl.Nc1cccc(O)c1` [3-Hydroxyanilinium chloride], the “% Reduction in amount of water absorbed” value is recorded as 16%. Still for that read-out and setting: the result for `O=C(O)c1cc(O)ccc1O` [2,5-Dihydroxybenzoic acid] reads 27%; that for `Nc1ccccc1O` [2-Aminophenol], 14%.

Regarding `O=C(O)c1cc(O)cc(O)c1` [3,5-Dihydroxybenzoic acid], the “% Reduction in amount of water absorbed” value is listed as 15%. Consider `O=C(O)c1ccc(O)c(Cl)c1` [3-Chloro-4-hydroxybenzoic acid], for which the “% Reduction in amount of water absorbed” value is recorded as 11%.

As to `O=C(O)c1cc(Cl)ccc1O` [5-Chlorosalicylic acid], the “% Reduction in amount of water absorbed” value turned out to be 28%. Still for that read-out and setting: the result for `O=C(O)/C=C/c1ccc(O)cc1` [p-Coumaric acid] reads 8.8%; that for `O=C(O)CNc1ccc(O)cc1` [N-4-Hydroxyphenylglycine], 15%.

The values above are taken from patent US10406094B2, “Composition for fast dry of hair” (The Procter & Gamble Company, priority 2016, dated 2019).
